# From patent US10934272B2, “Pyridyl derivatives as bromodomain inhibitors” (GlaxoSmithKline Intellectual Property (No. 2) Limited, priority 2016, dated 2021)
# How the values were obtained:
# BRD4 BD2 = target: T1, BRD4 BD2 (Homo sapiens, UniProt O60885, Y97A); test: TR-FRET competition assay, BRD4 BD2 (single mutant tandem bromodomain protein); format: binding; conditions: for IC50: read-out: pIC50 in the BRD4 BD2 assay (converted); for selectivity for BRD4 BD2 over BRD4 BD1: Selectivity = BRD4 BD2 pIC50 - BRD4 BD1 pIC50, in at least one of the TR-FRET assays; for fold selective for BRD4 BD2 over BRD4 BD1: from the pIC50 difference BRD4 BD2 - BRD4 BD1
# T1 construct: BRD4 (1-477) (Y97A) and (Y390A); made in house; host or cells: E. coli (pET15b vector)
# Description: Time Resolved Fluorescence Resonance Energy Transfer (TR-FRET) Assay
# Bromodomain binding was assessed utilising a time resolved fluorescent resonance energy transfer (TR-FRET) competition assay. To enable this approach a known, high affinity, pan-BET interacting small molecule was labelled with Alexa Fluor® 647, which is a far-red-fluorescent dye (Reference Compound X). Reference Compound X acts as a reporter of bromodomain binding and is the acceptor fluorophore component of the TR-FRET pair. Europium chelate, conjugated to an anti-6*His antibody, was utilised as the donor fluorophore in the TR-FRET pair. […] A TR-FRET signal is generated when the donor and acceptor fluorophores are in close proximity, between 20-80 Å, which is enabled in this assay by binding of Reference Compound X to the bromodomain protein.
# If the acceptor fluorophore is in close proximity then energy transfer can occur, which leads to emission of Alexa Fluor® 647 at λ665 nm. In the presence of competitor compound, Reference Compound X can be displaced from binding to the bromodomain. If displacement occurs, the acceptor fluorophore is no longer in proximity to the donor fluorophore, which prevents fluorescent energy transfer and, subsequently, a loss of Alexa Fluor® 647 emission at λ665 nm.
# The competition of the compounds of formula (I) with Reference Compound X for binding to the BET family (BRD2, BRD3, BRD4 and BRDT) was assessed using protein truncates spanning both bromodomain 1 (BD1) and bromodomain 2 (BD2). In order to monitor differential binding to either BD1 or BD2, single residue mutations of key tyrosines to alanine were made in the acetyl lysine binding pockets. To validate this approach, a double residue mutant tandem domain protein was produced for each of the BET family members. Utilising a Fluorescence Polarisation approach, binding affinities for each of the single and double mutants for Reference Compound X were determined. […] Final purification was completed by Superdex 200 prep grade size exclusion column. Purified protein was stored at −80° C. in 20 mM HEPES pH 7.5 and 100 mM NaCl.
# Protocol for Bromodomain BRD2, 3, 4 and T, BD1+BD2 mutant TR-FRET competition assays:
# All assay components were dissolved in an assay buffer composing of 50 mM HEPES pH7.4, 50 mM NaCl, 5% Glycerol, 1 mM DTT and 1 mM CHAPS. […] The solution containing bromodomain and Reference Compound X was added to dose response dilutions of test compound or DMSO vehicle (a maximum of 0.5% DMSO is used in this assay) in Greiner 384 well black low volume microtitre plates and subsequently incubated for 30 minutes at room temperature. An equal volume of 3 nM of anti-6*His Europium chelate was added to all wells, followed by a further 30 minute incubation at room temperature. TR-FRET was detected using a Perkin Elmer Multimode plate reader, by exciting the donor fluorophore at A337 nm and subsequently, after a delay of 50 μsecs, measuring emission of the donor and acceptor fluorophores at A615 nm and λ665 nm, respectively. In order to control these assays, 16 replicates each of uninhibited (DMSO vehicle) and inhibited (10*IC50 concentrations of Example 11 of WO 2011/054846A1) TR-FRET assays were included on every microtitre plate.
# cA four parameter curve fit of the following form was then applied: y=a+((b−a)/(1+(10^x/10^c)^d)
# Where ‘a’ is the minimum, ‘b’ is the Hill slope, ‘c’ is the pIC50 and ‘d’ is the maximum.
# [1] = tested on: BET family (BRD2, BRD3, BRD4 and BRDT) tandem bromodomain proteins, Tyrosine to Alanine mutants; test: Fluorescence Polarisation binding of Reference Compound X to single and double mutant tandem BET proteins; set-up: species or system Human
# Description: The competition of the compounds of formula (I) with Reference Compound X for binding to the BET family (BRD2, BRD3, BRD4 and BRDT) was assessed using protein truncates spanning both bromodomain 1 (BD1) and bromodomain 2 (BD2). In order to monitor differential binding to either BD1 or BD2, single residue mutations of key tyrosines to alanine were made in the acetyl lysine binding pockets. To validate this approach, a double residue mutant tandem domain protein was produced for each of the BET family members. Utilising a Fluorescence Polarisation approach, binding affinities for each of the single and double mutants for Reference Compound X were determined. […] The affinities of the single mutated bromodomain tandem proteins for Reference Compound X were equi-potent with the corresponding non-mutated BET protein. […] Final purification was completed by Superdex 200 prep grade size exclusion column. Purified protein was stored at −80° C. in 20 mM HEPES pH 7.5 and 100 mM NaCl. Protein identity was confirmed by peptide mass fingerprinting and predicted molecular weight confirmed by mass spectrometry.
# [2] = TR-FRET competition with Reference Compound X, values exemplary only
IC50 (BRD4 BD2; [2]),Compound,other results
1000 to 10000 nM,"CNC(=O)c1cc(C(=O)NCC2CCCO2)cc(Cc2ccccc2)n1 (racemic) [Example 84, (+/−)-6-Benzyl-N^2-methyl-N^4-((tetrahydrofuran-2-yl)methyl)pyridine-2,4-dicarboxamide]",
1000 to 10000 nM,"CNC(=O)c1cc(C(=O)NCC2CCCCO2)cc(Cc2ccccc2)n1 (racemic) [Example 85, (+/−)-6-Benzyl-N^2-methyl-N^4-((tetrahydro-2H-pyran-2-yl)methyl)pyridine-2,4-dicarboxamide]",
1000 to 10000 nM,"CNC(=O)c1cc(C(=O)N[C@H]2[C@@H]3COC[C@@H]32)cc(C(CF)c2ccccc2)n1 (mixture of isomers) [Example 164, (+/−)-N^4-((1R,5S,6r)-3-Oxabicyclo[3.1.0]hexan-6-yl)-6-(2-fluoro-1-phenylethyl)-N^2-methylpyridine-2,4-dicarboxamide]",
39.8 nM,"CNC(=O)c1cc(C(=O)NCC[C@H]2CNCCO2)cc(C(C)c2ccccc2)n1 (single isomer, unassigned) [Example 41, N^2-Methyl-N^4-(2-((S)-morpholin-2-yl)ethyl)-6-((S*)-1-phenylethyl)pyridine-2,4-dicarboxamide]",selectivity for BRD4 BD2 over BRD4 BD1 (BRD4 BD2): 3.0 log units; fold selective for BRD4 BD2 over BRD4 BD1 (BRD4 BD2): at least 1000 fold
1000 to 10000 nM,"CNC(=O)c1cc(C(=O)N[C@H]2[C@@H]3COC[C@@H]32)cc([C@@H](CF)c2ccccc2)n1 (single isomer, unassigned) [Example 165, N^4-((1R,5S,6r)-3-Oxabicyclo[3.1.0]hexan-6-yl)-6-((S*)-2-fluoro-1-phenylethyl)-N^2-methylpyridine-2,4-dicarboxamide]",
1000 to 10000 nM,"CNC(=O)c1cc(C(=O)N[C@H]2[C@@H]3COC[C@@H]32)cc([C@H](CF)c2ccccc2)n1 (single isomer, unassigned) [Example 166, N^4-((1R,5S,6r)-3-Oxabicyclo[3.1.0]hexan-6-yl)-6-((R*)-2-fluoro-1-phenylethyl)-N^2-methylpyridine-2,4-dicarboxamide]",
1000 to 10000 nM,"CNC(=O)c1cc(C(=O)NCC2CCOCC2)cc(Cc2ccccc2)n1 [Example 87, 6-Benzyl-N^2-methyl-N^4-((tetrahydro-2H-pyran-4-yl)methyl)pyridine-2,4-dicarboxamide]",
50.1 nM,"CNC(=O)c1cc(C(=O)N[C@H]2[C@@H]3COC[C@@H]32)cc(Cc2cccc3c2CCN3)n1 [Example 130, N^4-((1R,5S,6r)-3-Oxabicyclo[3.1.0]hexan-6-yl)-6-(indolin-4-ylmethyl)-N^2-methylpyridine-2,4-dicarboxamide]",
,"CNC(=O)c1cc(C(=O)NCCCC2OCC(N)CO2)cc(C(OC)c2ccccc2)n1 [Example 161, N^4-(3-((2r,5S)-5-Amino-1,3-dioxan-2-yl)propyl)-6-((R*)-methoxy(phenyl)methyl)-N2-methylpyridine-2,4-dicarboxamide]",selectivity for BRD4 BD2 over BRD4 BD1 (BRD4 BD2): 3.2 log units; pIC50 in the BRD4 BD2 assay (BRD4 BD2; [2]): 7.6 log10 units; fold selective for BRD4 BD2 over BRD4 BD1 (BRD4 BD2): at least 1000 fold
,COc1ccc2c(c1)C(c1ccc(Cl)cc1)=N[C@@H](CC(=O)NCCCCCNC(=O)CCCCCC1(C)/C(=C/C=C/C=C/C3=[N+](CCCCS(=O)(=O)O)c4ccc(S(=O)(=O)O)cc4C3(C)C)N(CCCCS(=O)(=O)[O-])c3ccc(S(=O)(=O)O)cc31)c1nnc(C)n1-2 (stereo partly drawn) [Reference Compound X],"reduction in Kd (affinity) of double mutant tandem proteins in comparison to non mutated, wild type tandem BET proteins ([1]; double residue mutant tandem domain protein, each BET family member): > 1000 fold; reduction of the Kd of the interaction between the mutated bromodomain and Reference Compound X ([1]; single mutations of Tyrosine to Alanine): > 1000 fold"
